From US4073935A, “Substituted propanol-(2)-derivatives and their nicotinic acid esters, and process for their preparation, and the use thereof as hypolipemic drugs” (Klinge Pharma GmbH & Co., priority 1974, dated 1978)
Read-outs that look alike come from different tables or passages of the source.

System: serum lipids
Assay: Lipid-lowering action in normolipemic rats
Type: in vivo
Conditions: Rattus norvegicus, 72 h, 4 × 100 mg/kg oral over 3 days, male Wistar rats, vs controls, X ± Sx
Experimental: Lipid-lowering action was tested on groups of 10 male Wistar rats (Ivanovas-Kisslegg), weight 200-220 g, normolipemic, or ordinary ration ("ssniff" complete feed).
The test compounds were taken up in an aqueous solution of 0.25% agar and 0.85% NaCl and administered orally. After administration of 4 × 100 mg/kg over a period of 3 days, the animals were bled by cardiac puncture after privation of […] for 4 hours.^1
^1 H. Enomoto and R. Zschocke, 3rd Int. Symp. Atheroscler, Berlin 1973, Abstr. 238.
Serum lipids were determined with a Technicon autoanalyzer. Total cholesterol (TC) was tested by the Liebermann-Burchard reaction. Quantitative analysis for triglycerides (TG) was performed by Eggstein and Kreutz's enzyme method (Klin. Wschr. 44, 262, 1966), modified for autoanalyzer.
Lipid lowering effect is expressed as percent lowering of total cholesterol and triglycerides compared to controls.

[1] = read-out: % Lowering TC (total cholesterol)
[2] = read-out: % Lowering TG (triglycerides)

| SMILES | inhibition in vivo at 100 mg/kg [1] | inhibition in vivo at 100 mg/kg [2] |
| --- | --- | --- |
| COC(=O)c1ccc(OCC(O)COc2ccc(Cl)cc2)cc1 (centres unmarked) [Compound 1, 3-(4'-methoxycarbonylphenoxy)-1-(4'-chlorophenoxy)propanol-(2)] | 47.9 ± 10.2% | 63.8 ± 17.2% |
| CCOC(=O)c1ccc(OCC(O)COc2ccc(Cl)cc2)cc1 (centres unmarked) [Compound 2] | 40.4 ± 24.3% | 60.2 ± 8.4% |
| C=CCOC(=O)c1ccc(OCC(O)COc2ccc(Cl)cc2)cc1 (centres unmarked) [Compound 3] | 35.9 ± 18.1% | 68.6 ± 11% |
| CCCOC(=O)c1ccc(OCC(O)COc2ccc(Cl)cc2)cc1 (centres unmarked) [Compound 4] | 53 ± 7.5% | 74.2 ± 13.4% |
| CC(C)OC(=O)c1ccc(OCC(O)COc2ccc(Cl)cc2)cc1 (centres unmarked) [Compound 5] | 15.5 ± 14.7% | 54.6 ± 28.3% |
| COC(=O)c1cccc(OCC(O)COc2ccc(Cl)cc2)c1 (centres unmarked) [Compound 6] | 28.5 ± 10% | 78.1 ± 11.2% |
| CC(C)OC(=O)c1cccc(OCC(O)COc2ccc(Cl)cc2)c1 (centres unmarked) [Compound 7] | 32.1 ± 18.1% | 73.2 ± 8.3% |
| COC(=O)C=Cc1ccc(OCC(O)COc2ccc(Cl)cc2)cc1 (centres unmarked) [Compound 8, 3-(4'-(2-methoxycarbonylvinyl)-phenoxy)-1-(4'-chlorophenoxy)-propanol-(2)] | 17.3 ± 26% | 52.1 ± 7.7% |
| COC(=O)CCc1ccc(OCC(O)COc2ccc(Cl)cc2)cc1 (centres unmarked) [Compound 9] | 44.5 ± 17.5% | 87.9 ± 11.9% |
| CCOC(=O)C=Cc1ccc(OCC(O)COc2ccc(Cl)cc2)cc1 (centres unmarked) [Compound 10] | 38.4 ± 5.6% | 77.4 ± 8.5% |
| C=CCOC(=O)C=Cc1ccc(OCC(O)COc2ccc(Cl)cc2)cc1 (centres unmarked) [Compound 11] | 76.1 ± 3.7% | 40.2 ± 10.3% |
| CCCOC(=O)C=Cc1ccc(OCC(O)COc2ccc(Cl)cc2)cc1 (centres unmarked) [Compound 12] | 40.3 ± 10.8% | 67 ± 15.7% |
| CC(C)OC(=O)C=Cc1ccc(OCC(O)COc2ccc(Cl)cc2)cc1 (centres unmarked) [Compound 13] | 50.4 ± 7.3% | 79.7 ± 10.4% |
| COC(=O)C=Cc1cccc(OCC(O)COc2ccc(Cl)cc2)c1 (centres unmarked) [Compound 14] | 22.9 ± 5.2% | 64.8 ± 17.7% |
| C=CCOC(=O)c1ccc(OCC(O)COc2ccc(C(C)(C)C)cc2)cc1 (centres unmarked) [Compound 17] | 55.8 ± 7.1% | 83.4 ± 8.8% |
| CCCOC(=O)c1ccc(OCC(O)COc2ccc(C(C)(C)C)cc2)cc1 (centres unmarked) [Compound 18] | 34.4 ± 6.9% | 68.3 ± 23.1% |
| CC(C)OC(=O)c1ccc(OCC(O)COc2ccc(C(C)(C)C)cc2)cc1 (centres unmarked) [Compound 19] | 44.9 ± 8% | 72.9 ± 6.1% |
| COC(=O)CCc1ccc(OCC(O)COc2ccc(C(C)(C)C)cc2)cc1 (centres unmarked) [Compound 22, 3-(4'-(2-methoxycarbonylethyl)-phenoxy)-1-(4'-tert.-butylphenoxy)-propanol-(2)] | 46.9 ± 11.4% | 79 ± 10.7% |
| CCCOC(=O)C=Cc1ccc(OCC(O)COc2ccc(C(C)(C)C)cc2)cc1 (centres unmarked) [Compound 23] | 40.9 ± 9.3% | 77.9 ± 5.5% |
| COC(=O)c1ccc(OCC(O)CNc2ccc(Cl)cc2)cc1 (centres unmarked) [Compound 26, 3-(4'-methoxycarbonylphenoxy)-1-(4'-chlorophenylamino)-propanol-(2)] | 25.8 ± 23.7% | 81 ± 5.2% |
| CC(C)OC(=O)c1ccc(OCC(O)CNc2ccc(Cl)cc2)cc1 (centres unmarked) [Compound 28] | 30.8 ± 9.7% | 64.6 ± 16.9% |
| COC(=O)C=Cc1ccc(OCC(O)CNc2ccc(Cl)cc2)cc1 (centres unmarked) [Compound 29] | 12.7 ± 12.5% | 62.3 ± 10.7% |
| COC(=O)c1ccc(NCC(O)COc2ccc(Cl)cc2)cc1 (centres unmarked) [Compound 30] | 12.1 ± 8.6% | 69.3 ± 15.9% |
| CCOC(=O)c1ccc(NCC(O)COc2ccc(Cl)cc2)cc1 (centres unmarked) [Compound 31] | 33.3 ± 17.6% | 63.6 ± 18.5% |
| COC(=O)c1ccc(OCC(O)CNc2ccc(C(C)(C)C)cc2)cc1 (centres unmarked) [Compound 35] | 51.9 ± 9.3% | 79.2 ± 9% |

| SMILES | inhibition in vivo at 100 mg/kg [1] | inhibition in vivo at 100 mg/kg [2] |
| --- | --- | --- |
| COC(=O)C=Cc1ccc(OCC(O)CNc2ccc(C(C)(C)C)cc2)cc1 (centres unmarked) [Compound 37, 3-(4'-(2'-methoxycarbonylvinyl)-phenoxy)-1-(4'-t-butylphenylamino)-propanol-(2)] | 32.8 ± 13.7% | 71.9 ± 13.5% |
| COC(=O)c1ccc(OCC(O)CSc2ccc(Cl)cc2)cc1 (centres unmarked) [Compound 38] | 12.3 ± 14.6% | 53 ± 17.6% |
| COC(=O)C=Cc1ccc(OCC(O)CSc2ccc(Cl)cc2)cc1 (centres unmarked) [Compound 40, 3-(4'-(2-methoxycarbonylvinyl)-phenoxy)-1-(4'-chlorophenylmercapto)-propanol-(2)] | 9.6 ± 9.1% | 59.4 ± 14.7% |
| COC(=O)c1ccc(OCC(O)CSc2ccc(C(C)(C)C)cc2)cc1 (centres unmarked) [Compound 43] | 37.2 ± 13.8% | 71 ± 12.5% |
| COCCOC(=O)c1ccc(OCC(O)COc2ccc(Cl)cc2)cc1 (centres unmarked) [Compound 45] | 51.7 ± 12.2% | 75.8 ± 17.1% |
| O=C(C=Cc1ccc(OCC(O)COc2ccc(Cl)cc2)cc1)OCCO (centres unmarked) [Compound 46] | 32.3 ± 19.7% | 69.5 ± 8.9% |
| COCCOC(=O)C=Cc1ccc(OCC(O)COc2ccc(Cl)cc2)cc1 (centres unmarked) [Compound 47] | 44.4 ± 18% | 57.8 ± 10.7% |
| CC(C)(C)c1ccc(OCC(O)COc2ccc(C(=O)OCCO)cc2)cc1 (centres unmarked) [Compound 48] | 60.4 ± 6.7% | 85.5 ± 15.6% |
| COCCOC(=O)c1ccc(OCC(O)COc2ccc(C(C)(C)C)cc2)cc1 (centres unmarked) [Compound 49] | 33.1 ± 16.7% | 76.1 ± 14.6% |
| CC(C)(C)c1ccc(OCC(O)COc2ccc(C=CC(=O)OCCO)cc2)cc1 (centres unmarked) [Compound 50] | 49.3 ± 11.7% | 84.2 ± 5.4% |
| COCCOC(=O)C=Cc1ccc(OCC(O)COc2ccc(C(C)(C)C)cc2)cc1 (centres unmarked) [Compound 51] | 47.8 ± 10.4% | 77 ± 7.4% |
| O=C(OCCO)c1ccc(OCC(O)CNc2ccc(Cl)cc2)cc1 (centres unmarked) [Compound 52] | 50 ± 10% | 53.9 ± 13.3% |
| O=C(O)c1ccc(OCC(O)COc2ccc(Cl)cc2)cc1 (centres unmarked) [Compound 53, 3-(4'-Carboxyphenoxy)-1-(4'-chlorphenoxy)-propanol-(2)] | 40.5 ± 13.5% | 83.6 ± 15.5% |
| O=C(O)c1cccc(OCC(O)COc2ccc(Cl)cc2)c1 (centres unmarked) [Compound 54, 3-(3'-Carboxyphenoxy)-1-(4'-chlorphenoxy)-propanol-(2)] | 28.7 ± 10.2% | 80 ± 11.4% |
| O=C(O)C=Cc1ccc(OCC(O)COc2ccc(Cl)cc2)cc1 (centres unmarked) [Compound 55, 3-(4'-(2-carboxyvinyl)-phenoxy)-1-(4'-chlorophenoxy)propanol-(2)] | 45.4 ± 9.2% | 49.9 ± 23.7% |
| O=C(O)CCc1ccc(OCC(O)COc2ccc(Cl)cc2)cc1 (centres unmarked) [Compound 56, 3-4'-(2-Carboxyathyl)-phenoxy!-1-(4'-chlorphenoxy)-propanol-(2)] | 48 ± 12.9% | 76.7 ± 7.7% |
| O=C(O)C=Cc1cccc(OCC(O)COc2ccc(Cl)cc2)c1 (centres unmarked) [Compound 57, 3-3'-(2-Carboxyvinyl)-phenoxy!-1-(4'-chlorphenoxy)-propanol-(2)] | 28.4 ± 11.1% | 61.8 ± 10.9% |
| O=C(O)CCc1cccc(OCC(O)COc2ccc(Cl)cc2)c1 (centres unmarked) [Compound 58, 3-3'-(2-Carboxyathyl)-phenoxy!-1-(4'-chlorphenoxy)-propanol-(2)] | 42.2 ± 5.6% | 71.3 ± 7.6% |
| CC(C)(C)c1ccc(OCC(O)COc2ccc(C(=O)O)cc2)cc1 (centres unmarked) [Compound 59, 3-(4'-Carboxyphenoxy)-1-(4'-t-butylphenoxy)-propanol-(2)] | 45.7 ± 14.3% | 66.7 ± 8.1% |
| CC(C)(C)c1ccc(OCC(O)COc2ccc(C=CC(=O)O)cc2)cc1 (centres unmarked) [Compound 61, 3-4'-(2-Carboxyvinyl)-phenoxy!-1-(4'-t-butylphenoxy)-propanol-(2)] | 44.9 ± 13.8% | 81.2 ± 17.1% |
| CC(C)(C)c1ccc(OCC(O)COc2ccc(CCC(=O)O)cc2)cc1 (centres unmarked) [Compound 62, 3-4'-(2-Carboxyathyl)-phenoxy!-1-(4'-t-butylphenoxy)-propanol-(2)] | 38.7 ± 15% | 91.9 ± 5% |
| O=C(O)c1ccc(OCC(O)CNc2ccc(Cl)cc2)cc1 (centres unmarked) [Compound 65, 3-(4'-Carboxyphenoxy)-1-(4'-chlorphenylamino)-propanol-(2)] | 20.9 ± 13.7% | 72.9 ± 11.3% |
| O=C(O)c1ccc(NCC(O)COc2ccc(Cl)cc2)cc1 (centres unmarked) [Compound 68, 3-(4'-Carboxyphenylamino)-1-(4'-chlorphenoxy)-propanol-(2)] | 15.2 ± 10% | 54.1 ± 17% |
| CC(C)(C)c1ccc(OCC(O)CNc2ccc(C(=O)O)cc2)cc1 (centres unmarked) [Compound 70, 3-(4'-Carboxyphenylamino)-1-(4'-t-butylphenoxy)-propanol-(2)] | 33.3 ± 12.2% | 78.1 ± 10.4% |
